Experimental data as given in ChEMBL document CHEMBL1201862, “PubChem BioAssay data set” (2004).
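A five-concentration, 48-hour dose response in 96-well plates underlies each endpoint, interpolated linearly between surrounding concentrations. Here, GI50 denotes the concentration required for 50% inhibition of growth.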 Active and inactive are the calls of the source. Rule as the data show it: active = GI50 up to about 1.1 µM and inactive = higher.

Assays:
Assay in all cases: inhibition of tumour cell growth, NCI panel, 48 h
[1] = tested on: M19-MEL
[2] = tested on: HOP-18
[3] = tested on: DLD-1
[4] = tested on: DMS-273
[5] = tested on: LXFL 529
[6] = tested on: DMS-114
[7] = tested on: KM-20L2
[8] = tested on: XF498
[9] = tested on: RXF 631

Measured: GI50

CN(C)c1ccc(/C=C/c2cc[n+](C)c3ccccc23)cc1
inactive: [1] 1.44 µM | [2] 3.47 µM | [3] 2.68 µM | [4] 2.39 µM | [5] 1.23 µM | [6] 2.3 µM | [7] 3.04 µM

Cc1cc2c(C)n(Cc3ccc(Cl)cc3Cl)nc2c(C#N)c1C
inactive: [1] 73.8 µM | [2] 40.8 µM | [3] > 100 µM | [8] 15.8 µM | [4] 50.8 µM | [5] 59.6 µM | [6] 36.4 µM | [7] 36.5 µM

Clc1cccc(C2SCc3nc4ccccc4n32)c1 (stereo unspecified)
inactive: [1] 19.4 µM | [2] 18.5 µM | [3] 15.8 µM | [5] 19.9 µM

COc1ccc(OC)c(NC(=O)C(=O)C(C(C)=O)c2nc3ccc(Cl)cc3nc2O)c1 (stereo unspecified)
inactive: [1] > 50 µM | [2] 45.2 µM | [3] > 50 µM | [8] > 50 µM | [9] > 50 µM | [4] > 50 µM | [5] > 50 µM | [6] > 50 µM | [7] > 50 µM

COC1(OC)CC2CCCCC2=C(C)N1S(=O)(=O)c1ccccc1 (stereo unspecified)
inactive: [1] > 100 µM | [2] > 100 µM | [3] > 100 µM | [8] > 100 µM | [9] > 100 µM | [4] > 100 µM | [5] > 100 µM | [7] > 100 µM

[N-]=[N+]=Nc1nnc(CCCCc2nnc(N=[N+]=[N-])o2)o1
inactive: [1] > 100 µM | [2] > 100 µM | [3] > 100 µM | [8] > 100 µM | [9] 25.4 µM | [5] > 100 µM | [6] > 100 µM | [7] > 100 µM

COC(=O)/C=C(C)/C=C/C1OC(C)OCC1O (stereo unspecified)
inactive: [1] > 100 µM | [3] > 100 µM | [4] > 100 µM | [5] > 100 µM | [6] > 100 µM | [7] > 100 µM

COC(=O)C(=O)C(C(=O)C(=O)Nc1cc([N+](=O)[O-])ccc1[N+](=O)[O-])c1nc2ccc(C(=O)c3ccccc3)cc2nc1O (stereo unspecified)
inactive: [1] 28.4 µM | [2] 8.02 µM | [3] 52.2 µM | [8] 3.36 µM | [9] 49.3 µM | [4] 22.4 µM | [5] 23.4 µM | [6] 23.2 µM

Nc1nc2c(ncn2Cc2ccccc2CCO)c(=O)[nH]1
inactive: [1] > 100 µM | [8] > 100 µM | [9] > 100 µM | [4] > 100 µM | [5] > 100 µM | [6] > 100 µM | [7] > 100 µM

Cc1csc2nc(-c3ccncc3)cn12
inactive: [1] > 59.6 µM | [2] > 57.9 µM | [3] > 63.1 µM | [8] > 100 µM | [9] > 88.3 µM | [4] 19.7 µM | [5] > 51.3 µM | [6] > 42.1 µM | [7] > 65 µM

N#Cc1cc([N+](=O)[O-])ccc1NC(=O)C(F)(F)F
inactive: [1] > 100 µM | [2] > 85.9 µM | [3] > 58.9 µM | [8] > 100 µM | [4] > 100 µM | [5] > 100 µM | [6] > 40.8 µM | [7] > 74.5 µM

Cc1ccc(SC(C)/C=C/NNC2=NN=C(c3ccccc3)C(c3ccccc3)N2)cc1 (stereo unspecified)
inactive: [1] 36.6 µM | [2] 24.1 µM | [3] 27.4 µM | [4] 32.5 µM | [5] 25.8 µM | [6] 28.8 µM | [7] 14 µM

COC(=O)/C(=N/NC(C)(C)C)C(C(=O)C=C(C)C)C(=O)C(=O)Nc1ccc(Cl)cc1C (stereo unspecified)
inactive: [1] > 100 µM | [8] > 100 µM | [5] > 100 µM | [6] > 100 µM | [7] > 100 µM

COC(=O)C(=O)C(C(C)=O)C(=O)NCc1ccc(OC)c(OC)c1 (stereo unspecified)
inactive: [1] > 100 µM | [2] > 100 µM | [3] > 100 µM | [8] > 100 µM | [9] > 100 µM | [4] > 100 µM | [5] > 100 µM | [6] > 100 µM | [7] > 100 µM

CC1(C)OC2C(=O)OC(COCc3ccccc3)C2O1 (stereo unspecified)
inactive: [1] > 100 µM | [2] > 100 µM | [3] > 100 µM | [9] > 100 µM | [4] > 100 µM | [5] > 100 µM | [7] > 100 µM

CN/N=C(\C(=O)Nc1ccc(C(F)(F)F)cc1[N+](=O)[O-])C(c1cnc2ccc([N+](=O)[O-])cc2n1)[N+](=O)[O-] (stereo unspecified)
inactive: [1] 10.9 µM | [3] > 100 µM | [5] 21.8 µM | [6] 10.4 µM

COc1ccc(C2Oc3c(c(O)cc4c3[C@H](c3ccc(O)cc3O)[C@H](O)C(c3ccc(O)c(O)c3)O4)C[C@@H]2O)cc1O (stereo partly specified)
inactive: [1] > 100 µM | [2] > 100 µM | [3] > 100 µM | [4] > 100 µM | [5] > 100 µM | [6] > 100 µM | [7] > 100 µM
